Values joined by “and” are separate entries in the source; they are usually repeats but may differ in a detail not shown here. Equal values may be shown once.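 The compound was tested at five concentrations on cells cultured in 96-well plates, with a 48-hour exposure period. At the GI50, growth is halved.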 Active and inactive are the calls of the source. Rule as the data show it: active = GI50 up to about 1.1 µM and inactive = higher.
What was measured:
Assay in all cases: DTP human tumour cell line panel, 48 h
Hs-578T = tested on: Hs-578T
MOLT-4 = tested on: MOLT-4
HOP-62 = tested on: HOP-62
RXF 393 = tested on: RXF 393
SK-MEL-2 = tested on: SK-MEL-2
NCI/ADR-RES = tested on: NCI/ADR-RES
A498 = tested on: A498
UO-31 = tested on: UO-31
MDA-MB-231 = tested on: MDA-MB-231
CCRF-CEM = tested on: CCRF-CEM
CAKI-1 = tested on: CAKI-1
MDA-MB-435 = tested on: MDA-MB-435
EKVX = tested on: EKVX
SR = tested on: SR
K562 = tested on: K562
SK-MEL-28 = tested on: SK-MEL-28
NCI-H226 = tested on: NCI-H226
Malme-3M = tested on: Malme-3M
PC-3 = tested on: PC-3
SNB-75 = tested on: SNB-75

Row | SMILES | GI50 (Hs-578T) | GI50 (MOLT-4) | GI50 (HOP-62) | GI50 (RXF 393) | GI50 (SK-MEL-2) | GI50 (NCI/ADR-RES) | GI50 (A498) | GI50 (UO-31) | GI50 (MDA-MB-231) | GI50 (CCRF-CEM) | GI50 (CAKI-1) | GI50 (MDA-MB-435) | GI50 (EKVX) | GI50 (SR) | GI50 (K562) | GI50 (SK-MEL-28) | GI50 (NCI-H226) | GI50 (Malme-3M) | GI50 (PC-3) | GI50 (SNB-75)
1 | NS(=O)(=O)c1nnc(NS(=O)(=O)c2ccc(F)cc2)s1 | > 100 µM (inactive) | > 100 µM (inactive) | > 100 µM (inactive) | > 100 µM (inactive) | > 100 µM (inactive) | > 100 µM (inactive) | > 100 µM (inactive) | > 100 µM (inactive) | > 100 µM (inactive) | > 100 µM (inactive) | > 100 µM (inactive) | > 100 µM (inactive) | > 100 µM (inactive) | > 100 µM (inactive) | > 100 µM (inactive) | > 100 µM (inactive) | > 100 µM (inactive) |  |  | 
2 | Cc1ccc(/N=N/c2ccc(N)cc2C)c(S(N)(=O)=O)c1 | 63 µM (inactive) | 64 µM (inactive) | > 100 µM (inactive) | > 100 µM (inactive) | > 100 µM (inactive) | 76.6 µM (inactive) | > 100 µM (inactive) | 63 µM (inactive) | > 100 µM (inactive) | 48.1 µM (inactive) | > 100 µM (inactive) |  | 26.1 µM (inactive) | 0.478 µM (active) | 75.9 µM (inactive) | > 100 µM (inactive) | > 100 µM (inactive) | > 100 µM (inactive) | 89.7 µM (inactive) | 61.9 µM (inactive)
3 | COc1cc(N(Cc2ccc3nc(OC)c(OC)nc3c2)Cc2ccc3nc(OC)c(OC)nc3c2)cc(OC)c1OC | 7.67 µM (inactive) | > 50 µM (inactive) | 1.3 µM (inactive) | 10.7 µM (inactive) | 20.9 µM (inactive) | > 50 µM (inactive) |  | 31.5 µM (inactive) |  |  | > 50 µM (inactive) | > 50 µM (inactive) | 39.3 µM (inactive) | > 50 µM (inactive) |  | > 50 µM (inactive) | > 50 µM (inactive) | > 50 µM (inactive) | > 50 µM (inactive) | 6.9 µM (inactive)
4 | COc1ccc(/C=C/C(=O)CCN2CCN(CCC(=O)/C=C/c3ccc(OC)cc3)CC2)cc1 | 20 µM (inactive) | 6.87 µM (inactive) | 20.6 µM (inactive) | 4.25 µM (inactive) | 19.4 µM (inactive) | 36.4 µM (inactive) | < 0.01 µM (active) | 14.6 µM (inactive) | 12.6 µM (inactive) |  | 13.5 µM (inactive) | 9.35 µM (inactive) | 14.5 µM (inactive) |  | 5.22 µM (inactive) | 13.6 µM (inactive) | 22.3 µM (inactive) | 18.7 µM (inactive) | 12.9 µM (inactive) | 19.1 µM (inactive)
5 | Cc1ccsc1/C=N/Nc1nc2ccccc2s1 | 23.2 µM (inactive) | 16.2 µM (inactive) | 8.99 µM (inactive) | 6.27 µM (inactive) | 26.2 µM (inactive) | 21.4 µM (inactive) | 2.35 µM (inactive) | 20.8 µM (inactive) | 12.8 µM (inactive) | 15.4 µM (inactive) | 15.5 µM (inactive) | 70.1 µM (inactive) | 19.3 µM (inactive) |  | 14.7 µM (inactive) | 25.1 µM (inactive) | 19.4 µM (inactive) |  | 14.3 µM (inactive) | 20.5 µM (inactive)
6 | COc1ccc(NC(=S)c2ccc(CN3CCCCC3)s2)cc1 | 12.6 µM (inactive) | 20.1 µM (inactive) | 20.6 µM (inactive) |  | 19.4 µM (inactive) | 23 µM (inactive) | 16.2 µM (inactive) | 18.4 µM (inactive) |  | 14.8 µM (inactive) | 27.9 µM (inactive) | 19.6 µM (inactive) | 18.8 µM (inactive) | 16.8 µM (inactive) | 12.5 µM (inactive) | 17.3 µM (inactive) |  | 17.5 µM (inactive) | 25.6 µM (inactive) | 
7 | CC1=CC(=O)/C(=C(/C)NCCN(CCN/C(C)=C2\C(=O)C=C(C)OC2=O)CCN/C(C)=C2\C(=O)C=C(C)OC2=O)C(=O)O1 | > 100 µM (inactive) | > 100 µM (inactive) | > 100 µM (inactive) |  |  | > 100 µM (inactive) |  | > 100 µM (inactive) | > 100 µM (inactive) | > 100 µM (inactive) |  | > 100 µM (inactive) | > 100 µM (inactive) | > 100 µM (inactive) | > 100 µM (inactive) | > 100 µM (inactive) |  |  | > 100 µM (inactive) | > 100 µM (inactive)
8 | CCCCCCCCCCCCCCCCOCC(COP(=O)([O-])OCC[n+]1ccc(N(C)C)cc1)OCC (stereo unspecified) | 17.9 µM (inactive) | 4.52 µM (inactive) | 12.3 µM (inactive) | 16.3 µM (inactive) | 13.4 µM (inactive) |  |  | 15.5 µM (inactive) | 8.55 µM (inactive) | 10.5 µM (inactive) |  | 17.7 µM (inactive) |  | 4.95 µM (inactive) | 19.3 µM (inactive) | 17.6 µM (inactive) | 17.2 µM (inactive) | 18.5 µM (inactive) |  | 2.97 µM (inactive)
9 | CC(C)/C(Cl)=N\OC(=O)Nc1ccc(F)cc1F | 23.3 µM (inactive) | 1.85 µM (inactive) | 17.6 µM (inactive) | 3.72 µM (inactive) | 13.6 µM (inactive) | 7.05 µM (inactive) | 17 µM (inactive) | 7.52 µM (inactive) | 2.21 µM (inactive) | 0.836 µM (active) | 19.3 µM (inactive) |  | 6.53 µM (inactive) | 1.67 µM (inactive) | 1.26 µM (inactive) | 11 µM (inactive) | 15.8 µM (inactive) | 1.66 µM (inactive) | 17.2 µM (inactive) | 17.3 µM (inactive)
10 | CN(C)CCCNC(CC#N)CCC#N (stereo unspecified) | > 10 µM (inactive) | > 10 µM (inactive) | > 10 µM (inactive) | > 10 µM (inactive) | > 10 µM (inactive) | > 10 µM (inactive) | > 10 µM (inactive) | > 10 µM (inactive) | > 10 µM (inactive) | > 10 µM (inactive) | > 10 µM (inactive) | > 10 µM (inactive) | > 10 µM (inactive) |  | > 10 µM (inactive) | > 10 µM (inactive) | > 10 µM (inactive) | > 10 µM (inactive) | > 10 µM (inactive) | > 10 µM (inactive)
11 | CC1(C)CC(O)C(C)(C)[C@@H](O)C1 (stereo partly specified) | > 100 µM (inactive) | > 100 µM (inactive) | > 100 µM (inactive) | 28.7 µM (inactive) | > 100 µM (inactive) | > 100 µM (inactive) |  | > 100 µM (inactive) | > 100 µM (inactive) | > 100 µM (inactive) | > 100 µM (inactive) |  | > 100 µM (inactive) |  | > 100 µM (inactive) | > 100 µM (inactive) | > 100 µM (inactive) | > 100 µM (inactive) | > 100 µM (inactive) | > 100 µM (inactive)
12 | O=c1[nH]nc(-c2ccccc2)c2[nH]c3c(c12)CCCc1ccccc1-3 | 17 µM (inactive) | 10.9 µM (inactive) | 19.3 µM (inactive) | 15.6 µM (inactive) |  | 12.4 µM (inactive) |  | 12.8 µM (inactive) | 15.9 µM (inactive) | 14 µM (inactive) | 22 µM (inactive) | 13 µM (inactive) | 10.6 µM (inactive) | 15.1 µM (inactive) | 12.8 µM (inactive) |  | 16.1 µM (inactive) | 11.8 µM (inactive) | 14.9 µM (inactive) | 
13 | CCCCCCCCCCCCCCCC(=O)Nc1ccn(C2CCC(COP(=O)(O)OCC3OC(n4cc(F)c(=O)[nH]c4=O)CC3OC(C)=O)O2)c(=O)n1 (stereo unspecified) | 29.2 µM (inactive) | 9.31 µM (inactive) | 5.06 µM (inactive) | 22.4 µM (inactive) | 23.1 µM (inactive) | 16.7 µM (inactive) | 11.3 µM (inactive) | 7.48 µM (inactive) | 29.4 µM (inactive) | 1.47 µM (inactive) | 4.44 µM (inactive) | 15.5 µM (inactive) | 28.8 µM (inactive) |  | 6.15 µM (inactive) | 17.9 µM (inactive) | 30 µM (inactive) | 15.6 µM (inactive) | 15.5 µM (inactive) | 14.9 µM (inactive)
14 | O=C(O)CC(NC(=O)/C(=C/c1ccccc1)NC(=O)c1ccccc1)C(=O)O (stereo unspecified) | > 100 µM (inactive) | > 100 µM (inactive) | > 100 µM (inactive) | > 100 µM (inactive) | > 100 µM (inactive) | > 100 µM (inactive) | > 100 µM (inactive) | > 100 µM (inactive) | > 100 µM (inactive) | > 100 µM (inactive) | > 100 µM (inactive) | > 100 µM (inactive) | > 100 µM (inactive) |  | > 100 µM (inactive) | > 100 µM (inactive) | > 100 µM (inactive) | > 100 µM (inactive) | > 100 µM (inactive) | > 100 µM (inactive)
15 | CC1CCC(C(C)C2C(O)CC3C4CC=C5CC(O)CCC5(C)C4CCC32C)NC1 (stereo unspecified) | 35.9 µM (inactive) | 8.38 µM (inactive) | 27.7 µM (inactive) | 65 µM (inactive) | > 100 µM (inactive) | 23.4 µM (inactive) | > 100 µM (inactive) | 41.4 µM (inactive) | 24.7 µM (inactive) |  |  | 30.9 µM (inactive) | > 100 µM (inactive) |  | 39.2 µM (inactive) | > 100 µM (inactive) | 70.8 µM (inactive) | 20.6 µM (inactive) | 26.9 µM (inactive) | 28.2 µM (inactive)
16 | N#Cc1c(-c2ccccc2)[nH]c(=O)n(C2OC(CO)C(O)C(O)C2O)c1=O (stereo unspecified) | > 100 µM (inactive) | > 100 µM (inactive) | > 100 µM (inactive) | > 100 µM (inactive) | > 100 µM (inactive) | > 100 µM (inactive) | > 100 µM (inactive) | > 100 µM (inactive) | > 100 µM (inactive) | > 100 µM (inactive) | > 100 µM (inactive) | > 100 µM (inactive) | > 100 µM (inactive) |  | > 100 µM (inactive) | > 100 µM (inactive) |  |  | > 100 µM (inactive) | > 100 µM (inactive) and 75.7 µM (inactive)
